According to article PMC10010643 (Cancer Chemotherapy and Pharmacology, 2023):
“And” between values parts separate entries of the source, which are not always exact repeats. Equal entries are not always repeated.

How the values were obtained:
[1] = parameters: method as in PMID 36154172; settings: in mice; cited from earlier work
[2] = tested on: human liver stellate cell line; parameters: method as in PMID 36154172; settings: in vitro; cited from earlier work
[3] = tested on: programmed cell death protein 1 and PD-L1; settings: pembrolizumab and atezolizumab; cited from earlier work
[4] = Fraction of unbound GB1211 in plasma; assay type: in vitro ADME; settings: human
[5] = Safety and tolerability, Part B multiple ascending-dose phase in healthy participants; assay type: in vivo, human
Experimental: Following review of safety, tolerability, and PK data from cohorts A1–A6, participants received twice-daily doses (BID) under fasted conditions on days 1–9 and a final single dose in the morning of day 10. […] There was one treatment period and all participants stayed at the CRU from day − 1 until the morning of day 11 (24 h after the final dose on day 10). All were to return for a follow-up visit 5–7 days after their final dose.
Safety and tolerability assessments included adverse event (AE) monitoring, physical examinations, laboratory assessments (hematology, clinical chemistry, and urinalysis), vital signs (blood pressure, pulse rate, and body temperature) and ECG.
No formal statistical assessment was performed for the safety analysis.

OC[C@H]1O[C@H](Sc2cncc(Br)c2)[C@H](O)[C@@H](n2cc(-c3cc(F)c(F)c(F)c3)nn2)[C@H]1O [GB1211]
Oral bioavailability [1]: 68%
TGFβ-induced fibrosis gene expression [2]: inhibiting TGFβ-induced fibrosis gene expression
Galectin-3-induced inhibition of immune checkpoint inhibitor binding [3]: reverses
fraction unbound [4]: 0.0534
Number of TEAEs ([5]; 50 mg BID): 8
Participants discontinued due to TEAEs ([5]; 50 mg BID): 0 n (%)
Participants with SAEs ([5]; 50 mg BID): 0 n (%)
Participants with TEAEs ([5]; 50 mg BID): 4 (50.0) n (%) and 4 (50.0%) n (%)
Severity (all TEAEs): Mild ([5]; 50 mg BID): 2 (25.0) n (%)
Severity (all TEAEs): Moderate ([5]; 50 mg BID): 2 (25.0) n (%)
Severity (all TEAEs): Severe ([5]; 50 mg BID): 0 n (%)
Severity (all TEAEs): Total ([5]; 50 mg BID): 4 (50.0) n (%)
Severity (possibly related to study treatment): Mild ([5]; 50 mg BID): 2 (25.0) n (%)
Severity (possibly related to study treatment): Moderate ([5]; 50 mg BID): 2 (25.0) n (%)
Severity (possibly related to study treatment): Severe ([5]; 50 mg BID): 0 n (%)
Severity (possibly related to study treatment): Total ([5]; 50 mg BID): 4 (50.0) n (%)
TEAE Abdominal distension, participants ([5]; 50 mg BID): 0 n (%)
TEAE Abdominal pain upper, participants ([5]; 50 mg BID): 0 n (%)
TEAE Abdominal pain, participants ([5]; 50 mg BID): 0 n (%)
TEAE Arthralgia, participants ([5]; 50 mg BID): 0 n (%)
TEAE Constipation, participants ([5]; 50 mg BID): 0 n (%)
TEAE Dysuria, no. of AEs ([5]; 50 mg BID): 1
TEAE Dysuria, participants ([5]; 50 mg BID): 1 (12.5%) n (%)
TEAE Gastrointestinal disorders, participants ([5]; 50 mg BID): 0 n (%)
TEAE Headache, no. of AEs ([5]; 50 mg BID): 5
TEAE Headache, participants ([5]; 50 mg BID): 4 (50.0%) n (%)
TEAE Injury, poisoning and procedural complications, no. of AEs ([5]; 50 mg BID): 1
TEAE Injury, poisoning and procedural complications, participants ([5]; 50 mg BID): 1 (12.5%) n (%)
TEAE Limb injury, no. of AEs ([5]; 50 mg BID): 1
TEAE Limb injury, participants ([5]; 50 mg BID): 1 (12.5%) n (%)
TEAE Menstruation irregular, no. of AEs ([5]; 50 mg BID): 1
TEAE Menstruation irregular, participants ([5]; 50 mg BID): 1 (12.5%) n (%)
TEAE Musculoskeletal and connective tissue disorders, participants ([5]; 50 mg BID): 0 n (%)
TEAE Nervous system disorders, no. of AEs ([5]; 50 mg BID): 5
TEAE Nervous system disorders, participants ([5]; 50 mg BID): 4 (50.0%) n (%)
TEAE Pain in extremity, participants ([5]; 50 mg BID): 0 n (%)
TEAE Pollakiuria, participants ([5]; 50 mg BID): 0 n (%)
TEAE Renal and urinary disorders, no. of AEs ([5]; 50 mg BID): 1
TEAE Renal and urinary disorders, participants ([5]; 50 mg BID): 1 (12.5%) n (%)
TEAE Reproductive system and breast disorders, no. of AEs ([5]; 50 mg BID): 1
TEAE Reproductive system and breast disorders, participants ([5]; 50 mg BID): 1 (12.5%) n (%)
Number of TEAEs considered moderate ([5]; 50 mg BID cohort): Two
Number of TEAEs ([5]; 100 mg BID): 8
Participants discontinued due to TEAEs ([5]; 100 mg BID): 0 n (%)
Participants with SAEs ([5]; 100 mg BID): 0 n (%)
Participants with TEAEs ([5]; 100 mg BID): 3 (37.5) n (%) and 3 (37.5%) n (%)
Severity (all TEAEs): Mild ([5]; 100 mg BID): 3 (37.5) n (%)
Severity (all TEAEs): Moderate ([5]; 100 mg BID): 0 n (%)
Severity (all TEAEs): Severe ([5]; 100 mg BID): 0 n (%)
Severity (all TEAEs): Total ([5]; 100 mg BID): 3 (37.5) n (%)
Severity (possibly related to study treatment): Mild ([5]; 100 mg BID): 3 (37.5) n (%)
Severity (possibly related to study treatment): Moderate ([5]; 100 mg BID): 0 n (%)
Severity (possibly related to study treatment): Severe ([5]; 100 mg BID): 0 n (%)
Severity (possibly related to study treatment): Total ([5]; 100 mg BID): 3 (37.5) n (%)
TEAE Abdominal distension, no. of AEs ([5]; 100 mg BID): 1
TEAE Abdominal distension, participants ([5]; 100 mg BID): 1 (12.5%) n (%)
TEAE Abdominal pain upper, no. of AEs ([5]; 100 mg BID): 1
TEAE Abdominal pain upper, participants ([5]; 100 mg BID): 1 (12.5%) n (%)
TEAE Abdominal pain, participants ([5]; 100 mg BID): 0 n (%)
TEAE Arthralgia, no. of AEs ([5]; 100 mg BID): 1
TEAE Arthralgia, participants ([5]; 100 mg BID): 1 (12.5%) n (%)
TEAE Constipation, no. of AEs ([5]; 100 mg BID): 2
TEAE Constipation, participants ([5]; 100 mg BID): 2 (25.0%) n (%)
TEAE Dysuria, participants ([5]; 100 mg BID): 0 n (%)
TEAE Gastrointestinal disorders, no. of AEs ([5]; 100 mg BID): 4
TEAE Gastrointestinal disorders, participants ([5]; 100 mg BID): 2 (25.0%) n (%)
TEAE Headache, participants ([5]; 100 mg BID): 0 n (%)
TEAE Injury, poisoning and procedural complications, participants ([5]; 100 mg BID): 0 n (%)
TEAE Limb injury, participants ([5]; 100 mg BID): 0 n (%)
TEAE Menstruation irregular, participants ([5]; 100 mg BID): 0 n (%)
TEAE Musculoskeletal and connective tissue disorders, no. of AEs ([5]; 100 mg BID): 2
TEAE Musculoskeletal and connective tissue disorders, participants ([5]; 100 mg BID): 1 (12.5%) n (%)
TEAE Nervous system disorders, participants ([5]; 100 mg BID): 0 n (%)
TEAE Pain in extremity, no. of AEs ([5]; 100 mg BID): 1
TEAE Pain in extremity, participants ([5]; 100 mg BID): 1 (12.5%) n (%)
TEAE Pollakiuria, no. of AEs ([5]; 100 mg BID): 2
TEAE Pollakiuria, participants ([5]; 100 mg BID): 2 (25.0%) n (%)
TEAE Renal and urinary disorders, no. of AEs ([5]; 100 mg BID): 2
TEAE Renal and urinary disorders, participants ([5]; 100 mg BID): 2 (25.0%) n (%)
TEAE Reproductive system and breast disorders, participants ([5]; 100 mg BID): 0 n (%)
Participants with a TEAE possibly related to treatment, GB1211 ([5]; Part B): 7
Number of TEAEs on GB1211 ([5]; Part B, all GB1211 doses): 16
Participants with TEAEs on GB1211 ([5]; Part B, all GB1211 doses): 7
